According to ChEMBL document CHEMBL1165922, “Vitamin D receptor agonist/histone deacetylase inhibitor molecular hybrids” (Bioorg Med Chem, 2010):
Active and inactive are the calls of the source. The calls are words filed in the database; no cut-off is given here.

Assays:
Vitamin D3 receptor = target: T1, Vitamin D3 receptor (Homo sapiens, UniProt P11473)
T1 sequence (P11473 whole entry): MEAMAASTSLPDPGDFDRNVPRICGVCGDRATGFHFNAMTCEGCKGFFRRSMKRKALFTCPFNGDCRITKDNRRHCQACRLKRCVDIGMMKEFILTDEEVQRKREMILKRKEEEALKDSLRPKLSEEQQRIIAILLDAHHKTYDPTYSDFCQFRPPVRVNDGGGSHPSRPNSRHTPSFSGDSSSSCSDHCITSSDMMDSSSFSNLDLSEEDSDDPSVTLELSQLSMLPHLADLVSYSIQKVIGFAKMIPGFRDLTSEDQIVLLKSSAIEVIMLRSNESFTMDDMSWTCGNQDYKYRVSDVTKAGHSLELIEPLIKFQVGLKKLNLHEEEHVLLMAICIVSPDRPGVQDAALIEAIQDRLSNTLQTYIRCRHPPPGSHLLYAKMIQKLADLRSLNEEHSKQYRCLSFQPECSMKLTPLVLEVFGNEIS
Description: Binding affinity to VDR ligand binding domain by fluorescence polarization competition assay

Mus musculus [1] = assay: Toxicity in FVB mouse assessed as calcium level in blood at 1200 pmol/day administered via osmotic pump for 6 to 7 days measured on day 3 by microchemistry (RVb = 2.24 mmol/L); format: organism-based; details: in vivo, other
Mus musculus [2] = assay: Toxicity in FVB mouse assessed as calcium level in blood at 240 pmol/day administered via osmotic pump for 6 to 7 days measured on day 6 by microchemistry (RVb = 2 mmol/L); format: organism-based; details: in vivo, other
Mus musculus [3] = assay: Toxicity in FVB mouse assessed as calcium level in blood at 1200 pmol/day administered via osmotic pump for 6 to 7 days measured on day 6 by microchemistry (RVb = 2 mmol/L); format: organism-based; details: in vivo, other
[4] = target: T2, Protein deacetylase HDAC6 (Homo sapiens, UniProt Q9UBN7); assay: Inhibition of HDAC6 after 10 mins by fluorometric assay
T2 sequence (Q9UBN7 whole entry): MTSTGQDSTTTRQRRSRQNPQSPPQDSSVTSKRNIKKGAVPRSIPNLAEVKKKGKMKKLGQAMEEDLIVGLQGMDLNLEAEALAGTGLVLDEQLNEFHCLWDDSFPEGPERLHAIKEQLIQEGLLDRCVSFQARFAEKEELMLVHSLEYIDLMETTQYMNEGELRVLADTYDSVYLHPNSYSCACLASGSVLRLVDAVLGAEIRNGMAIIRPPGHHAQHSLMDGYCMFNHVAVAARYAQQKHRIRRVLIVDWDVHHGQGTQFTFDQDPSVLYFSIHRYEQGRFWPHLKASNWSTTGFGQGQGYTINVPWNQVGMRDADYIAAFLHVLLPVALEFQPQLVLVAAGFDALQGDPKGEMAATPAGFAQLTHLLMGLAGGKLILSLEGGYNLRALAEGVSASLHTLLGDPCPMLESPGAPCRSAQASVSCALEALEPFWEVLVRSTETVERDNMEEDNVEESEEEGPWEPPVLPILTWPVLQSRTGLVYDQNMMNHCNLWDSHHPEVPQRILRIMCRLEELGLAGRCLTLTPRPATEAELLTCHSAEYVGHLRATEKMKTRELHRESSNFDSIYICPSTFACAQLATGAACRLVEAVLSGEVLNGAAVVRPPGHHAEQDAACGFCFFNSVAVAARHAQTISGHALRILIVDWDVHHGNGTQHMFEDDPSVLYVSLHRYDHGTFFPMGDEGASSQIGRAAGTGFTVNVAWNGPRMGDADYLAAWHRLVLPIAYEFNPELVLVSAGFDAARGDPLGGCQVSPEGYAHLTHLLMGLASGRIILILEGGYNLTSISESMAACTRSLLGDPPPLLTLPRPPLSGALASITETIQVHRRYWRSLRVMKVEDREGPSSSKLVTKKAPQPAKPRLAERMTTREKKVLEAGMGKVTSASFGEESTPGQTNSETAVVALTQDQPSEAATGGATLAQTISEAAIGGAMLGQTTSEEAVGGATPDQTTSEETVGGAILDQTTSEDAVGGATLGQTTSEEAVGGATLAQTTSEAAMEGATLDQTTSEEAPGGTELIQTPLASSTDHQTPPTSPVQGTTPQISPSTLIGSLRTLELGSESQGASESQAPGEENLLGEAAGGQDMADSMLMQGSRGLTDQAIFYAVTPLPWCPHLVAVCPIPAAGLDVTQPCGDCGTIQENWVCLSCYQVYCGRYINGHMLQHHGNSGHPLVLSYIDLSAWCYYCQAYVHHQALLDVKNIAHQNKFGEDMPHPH

Histone deacetylase 3 = Histone deacetylase 3 (Homo sapiens, UniProt O15379); assay: Inhibition of HDAC3 after 10 mins by fluorometric assay
Sequence of Histone deacetylase 3 (O15379 whole entry): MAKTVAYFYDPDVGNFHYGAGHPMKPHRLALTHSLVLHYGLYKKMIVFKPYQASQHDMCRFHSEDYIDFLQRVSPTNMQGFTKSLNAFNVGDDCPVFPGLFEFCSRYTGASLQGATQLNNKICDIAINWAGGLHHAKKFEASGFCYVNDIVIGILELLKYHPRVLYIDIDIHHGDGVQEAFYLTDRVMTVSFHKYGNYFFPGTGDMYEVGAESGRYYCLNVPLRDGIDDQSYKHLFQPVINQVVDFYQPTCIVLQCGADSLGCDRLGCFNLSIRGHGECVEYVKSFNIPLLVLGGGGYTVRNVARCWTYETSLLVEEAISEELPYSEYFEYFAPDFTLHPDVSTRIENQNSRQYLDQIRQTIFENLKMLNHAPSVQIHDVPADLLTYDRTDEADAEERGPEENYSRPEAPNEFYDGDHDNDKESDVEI

Mus musculus [5] = assay: Toxicity in FVB mouse assessed as calcium level in blood at 240 pmol/day administered via osmotic pump for 6 to 7 days measured on day 3 by microchemistry (RVb = 2.24 mmol/L); format: organism-based; details: in vivo, other
Mus musculus [6] = assay: Toxicity in FVB mouse assessed as calcium level in blood at 1200 pmol/day administered via osmotic pump for 6 to 7 days measured on day 4 by microchemistry (RVb = 2.11 mmol/L); format: organism-based; details: in vivo, other
AT84 = assay: Antiproliferative activity against mouse AT84 cells at 100 to 500 nM after 48 hrs by EdU incorporation assay; format: functional, cell-based
Mus musculus [7] = assay: Toxicity in FVB mouse assessed as calcium level in blood at 240 pmol/day administered via osmotic pump for 6 to 7 days measured on day 7 by microchemistry (RVb = […] mmol/L); format: organism-based; details: in vivo, other
Mus musculus [8] = assay: Toxicity in FVB mouse assessed as calcium level in blood at 1200 pmol/day administered via osmotic pump for 6 to 7 days measured on day 7 by microchemistry (RVb = […] mmol/L); format: organism-based; details: in vivo, other
Histone deacetylase 2 = Histone deacetylase 2 (Homo sapiens, UniProt Q92769); assay: Inhibition of HDAC2 after 10 mins by fluorometric assay
Sequence of Histone deacetylase 2 (Q92769 whole entry): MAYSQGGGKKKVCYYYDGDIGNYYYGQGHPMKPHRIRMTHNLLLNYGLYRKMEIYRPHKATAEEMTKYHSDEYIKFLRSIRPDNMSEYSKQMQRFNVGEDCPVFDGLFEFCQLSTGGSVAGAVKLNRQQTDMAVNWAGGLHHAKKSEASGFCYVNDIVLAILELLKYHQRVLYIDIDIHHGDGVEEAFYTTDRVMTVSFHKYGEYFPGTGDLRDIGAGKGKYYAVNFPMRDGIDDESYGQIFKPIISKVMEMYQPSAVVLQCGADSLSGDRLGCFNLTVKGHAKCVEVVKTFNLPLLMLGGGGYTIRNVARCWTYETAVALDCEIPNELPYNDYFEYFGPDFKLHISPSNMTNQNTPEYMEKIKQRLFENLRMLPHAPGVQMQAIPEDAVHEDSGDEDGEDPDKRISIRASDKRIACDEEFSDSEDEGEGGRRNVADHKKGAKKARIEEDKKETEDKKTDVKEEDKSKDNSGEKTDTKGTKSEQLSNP

Mus musculus [9] = assay: Toxicity in FVB mouse assessed as calcium level in blood at 240 pmol/day administered via osmotic pump for 6 to 7 days measured on day 4 by microchemistry (RVb = 2.11 mmol/L); format: organism-based; details: in vivo, other
[10] = Ratio of compound to calcitriol antiproliferative activity against mouse AT84 cells; format: functional

Compound	IC50 (Vitamin D3 receptor) [µM]	IC50 [4] [µM]	IC50 (Histone deacetylase 3) [µM]	IC50 (Histone deacetylase 2) [µM]	Activity (Mus musculus [1]) [mmol/L]	Activity (Mus musculus [2]) [mmol/L]	Activity (Mus musculus [3]) [mmol/L]	Activity (Mus musculus [5]) [mmol/L]	Activity (Mus musculus [6]) [mmol/L]	Activity (AT84)	Activity (Mus musculus [7]) [mmol/L]	Activity (Mus musculus [8]) [mmol/L]	Activity (Mus musculus [9]) [mmol/L]	Ratio [10]
C[C@H](CCCCNS(C)(=O)=O)[C@H]1CC[C@H]2/C(=C/C=C3C[C@@H](O)C[C@H](O)C3)CCC[C@]12C	0.321	191	718	–	2.01	2.22	1.92	1.88	–	–	–	–	–	–
C[C@H](CCCCC(=O)Nc1ccccc1N)[C@H]1CC[C@H]2/C(=C/C=C3C[C@@H](O)C[C@H](O)C3)CCC[C@]12C	0.185	81.1	104	189	–	–	–	–	2.04	Active	1.8	2.09	1.97	–
C[C@H](CCCCNS(N)(=O)=O)[C@H]1CC[C@H]2/C(=C/C=C3C[C@@H](O)C[C@H](O)C3)CCC[C@]12C	0.28	50.4	470	–	–	–	–	–	–	–	–	–	–	–
C[C@H](CCCC(=O)Nc1ccccc1N)[C@H]1CC[C@H]2/C(=C/C=C3C[C@@H](O)C[C@H](O)C3)CCC[C@]12C	0.524	330	460	–	2.07	2.05	2.14	1.89	–	–	–	–	–	–

Now those with a lower IC50 [4], led by results:

IC50 (Vitamin D3 receptor) [µM]	IC50 [4] [µM]	IC50 (Histone deacetylase 3) [µM]	IC50 (Histone deacetylase 2) [µM]	Compound	Activity (Mus musculus [1]) [mmol/L]	Activity (Mus musculus [2]) [mmol/L]	Activity (Mus musculus [3]) [mmol/L]	Activity (Mus musculus [5]) [mmol/L]	Activity (Mus musculus [6]) [mmol/L]	Activity (AT84)	Activity (Mus musculus [7]) [mmol/L]	Activity (Mus musculus [8]) [mmol/L]	Activity (Mus musculus [9]) [mmol/L]	Ratio [10]
0.248	3	14.5	16.5	C[C@H](CCCCC(=O)NO)[C@H]1CC[C@H]2/C(=C/C=C3C[C@@H](O)C[C@H](O)C3)CCC[C@]12C	2.03	1.93	2.26	1.93	–	Active	–	–	–	20
–	9.3	3.2	–	C[C@H](CCCC(=O)NO)[C@H]1CC[C@H]2/C(=C/C=C3C[C@@H](O)C[C@H](O)C3)CCC[C@]12C	–	–	–	–	–	–	–	–	–	–
0.036	1.75	32.3	96.3	C[C@H](CCCCNC(=O)CS)[C@H]1CC[C@H]2/C(=C/C=C3C[C@@H](O)C[C@H](O)C3)CCC[C@]12C	–	–	–	–	2	Active	2.02	2.04	2.03	–
0.196	31.6	605	–	C[C@H](CCCCCNS(N)(=O)=O)[C@H]1CC[C@H]2/C(=C/C=C3C[C@@H](O)C[C@H](O)C3)CCC[C@]12C	–	–	–	–	–	–	–	–	–	–
